Reference: PubChem BioAssay AID328 (DTP/NCI, 2004)
Where “and” joins values, the source holds several entries; their conditions need not be identical. Equal values may be shown once. Toxic doses and inconclusive results are not listed.

Test system: BDF1 mice, P388 leukemia ip, median survival T/C
Assay: NCI In Vivo Anticancer Drug Screen. Data for tumor model P388 Leukemia (intraperitoneal) in B6D2F1 (BDF1) mice
Settings: endpoint: median survival time, higher = longer survival
Summary of the method: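 T/C = treated-group survival ÷ vehicle-control survival; tumour transplanted into mice before dosing.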

[1] = dose: 100.0 mg/kg/injection, schedule: Q04DX003 (ip), vehicle: saline with Tween-80
[2] = dose: 200.0 mg/kg/injection, schedule: Q04DX003 (ip), vehicle: saline with Tween-80
[3] = dose: 400.0 mg/kg/injection, schedule: Q04DX003 (ip), vehicle: saline with Tween-80
[4] = dose: 50.0 mg/kg/injection, schedule: Q01DX009 (ip), vehicle: Klucel (hydroxypropylcellulose) (HPC)
[5] = dose: 200.0 mg/kg/injection, schedule: Q01DX009 (ip), vehicle: Klucel (hydroxypropylcellulose) (HPC)
[6] = dose: 0.5 mg/kg/injection, schedule: Q01DX009 (ip), vehicle: saline
[7] = dose: 1.0 mg/kg/injection, schedule: Q01DX009 (ip), vehicle: saline
[8] = dose: 12.5 mg/kg/injection, schedule: Q01DX009 (ip), vehicle: Klucel (hydroxypropylcellulose) (HPC)
[9] = dose: 12.5 mg/kg/injection, schedule: Q01DX009 (ip), vehicle: saline with Tween-80
[10] = dose: 25.0 mg/kg/injection, schedule: Q01DX009 (ip), vehicle: Klucel (hydroxypropylcellulose) (HPC)
[11] = dose: 25.0 mg/kg/injection, schedule: Q01DX009 (ip), vehicle: saline with Tween-80
[12] = dose: 50.0 mg/kg/injection, schedule: Q01DX009 (ip), vehicle: saline with Tween-80
[13] = dose: 50.0 mg/kg/injection, schedule: Q01DX009 (ip), vehicle: saline
[14] = dose: 100.0 mg/kg/injection, schedule: Q01DX009 (ip), vehicle: saline with Tween-80
[15] = dose: 200.0 mg/kg/injection, schedule: Q01DX009 (ip), vehicle: saline with Tween-80
[16] = dose: 100.0 mg/kg/injection, schedule: Q01DX009 (ip), vehicle: Klucel (hydroxypropylcellulose) (HPC)
[17] = dose: 100.0 mg/kg/injection, schedule: Q04DX003 (ip), vehicle: Klucel (hydroxypropylcellulose) (HPC)
[18] = dose: 200.0 mg/kg/injection, schedule: Q04DX003 (ip), vehicle: Klucel (hydroxypropylcellulose) (HPC)

`Nc1nc(SCc2ccccc2)c2ncn(C3OC(CO)CC3O)c2n1` (stereo not given) was tested, and the T/C (dose: 100.0 mg/kg/injection, schedule: Q01DX009 (ip), vehicle: saline sonified) was 100 % of control, the T/C (dose: 100.0 mg/kg/injection, schedule: Q04DX003 (ip), vehicle: saline sonified) was 109 % of control and the T/C (dose: 200.0 mg/kg/injection, schedule: Q01DX009 (ip), vehicle: saline sonified) was 100 % of control. The T/C (dose: 200.0 mg/kg/injection, schedule: Q04DX003 (ip), vehicle: saline sonified) was 109 % of control, the T/C (dose: 400.0 mg/kg/injection, schedule: Q01DX009 (ip), vehicle: saline sonified) was 113 % of control and the T/C (dose: 400.0 mg/kg/injection, schedule: Q04DX003 (ip), vehicle: saline sonified) was 109 % of control.

With `COc1ccc(NCCOc2ccccc2Br)cc1` the T/C (dose: 100.0 mg/kg/injection, schedule: Q01DX009 (ip), vehicle: other) was 109 % of control and the T/C (dose: 400.0 mg/kg/injection, schedule: Q01DX009 (ip), vehicle: other) was 118 % of control.

For `Cc1ccc(S(=O)(=O)Nc2ccccc2SSc2ccccc2NS(=O)(=O)c2ccc(C)cc2)cc1`, the T/C [1] was 100 % of control, the T/C [2] was 110 % of control and the T/C [3] was 110 % of control.

`CCOC(=O)C(C(=O)OCC)C(=O)c1cc(-c2ccc(Cl)c(Cl)c2)nc2c(Cl)cc(Cl)cc12` was tested, and the T/C [4] was 100 % of control and the T/C [5] was 91 % of control.

With `[Ni+2].[SH2+]C([SH2+])=Nc1ccccc1.[SH2+]C([SH2+])=Nc1ccccc1.c1ccc(C[P+](c2ccccc2)(c2ccccc2)c2ccccc2)cc1` the T/C [6] was 115 % of control, the T/C [7] was 95 % of control and 120 % of control and the T/C (dose: 1.0 mg/kg/injection, schedule: Q04DX003 (ip), vehicle: other) was 95 % of control. For the same molecule, the T/C (dose: 3.0 mg/kg/injection, schedule: Q01DX009 (ip), vehicle: saline) was 118 % of control and 120 % of control, the T/C (dose: 3.0 mg/kg/injection, schedule: Q04DX003 (ip), vehicle: other) was 108 % of control and the T/C (dose: 4.0 mg/kg/injection, schedule: Q01DX009 (ip), vehicle: saline) was 100 % of control. For the same molecule, the T/C (dose: 6.0 mg/kg/injection, schedule: Q01DX009 (ip), vehicle: saline) was 104 % of control and 105 % of control, the T/C (dose: 6.0 mg/kg/injection, schedule: Q04DX003 (ip), vehicle: other) was 95 % of control and the T/C (dose: 9.0 mg/kg/injection, schedule: Q01DX009 (ip), vehicle: saline) was 110 % of control and 118 % of control. The T/C (dose: 10.0 mg/kg/injection, schedule: Q01DX009 (ip), vehicle: Klucel (hydroxypropylcellulose) (HPC)) was 115 % of control.

In the case of `CCC/C(C)=N/Nc1ccccn1`, the T/C [8] is reported as 105 % of control, the T/C [9] is reported as 95 % of control and the T/C [10] is reported as 95 % of control and 110 % of control. The T/C [11] was 100 % of control, the T/C [4] was 100 % of control and 120 % of control and the T/C [12] was 91 % of control and 118 % of control. The T/C [13] was 120 % of control.

In the case of `Cc1cc(O)c(C(c2ccc(Cl)cc2)c2c(O)cc(C)[nH]c2=O)c(=O)[nH]1`, the T/C [12] is reported as 108 % of control, the T/C [14] is reported as 108 % of control and the T/C [15] is reported as 105 % of control.

In the case of `CC1Cc2c(Cl)cc(C(=O)NC(Cc3ccccc3)C(=O)O)c(O)c2C(=O)O1` (stereo not given), the T/C (dose: 0.25 mg/kg/injection, schedule: Q01DX009 (ip), vehicle: saline) is reported as 98 % of control, the T/C [6] is reported as 116 % of control and the T/C [7] is reported as 115 % of control.

For `Cc1cc2nc(CO)[nH]c2cc1C`, the T/C [16] was 100 % of control, the T/C [5] was 86 % of control and the T/C (dose: 400.0 mg/kg/injection, schedule: Q01DX009 (ip), vehicle: Klucel (hydroxypropylcellulose) (HPC)) was 95 % of control.

In the case of `CC(C)=CCc1c(O)ccc(C(=O)/C=C/c2ccccc2)c1O`, the T/C (dose: 3.12 mg/kg/injection, schedule: Q01DX009 (ip), vehicle: Klucel (hydroxypropylcellulose) (HPC)) is reported as 102 % of control, the T/C (dose: 6.25 mg/kg/injection, schedule: Q01DX009 (ip), vehicle: Klucel (hydroxypropylcellulose) (HPC)) is reported as 106 % of control and the T/C [8] is reported as 116 % of control. The T/C [10] was 100 % of control, the T/C [4] was 90 % of control and the T/C [16] was 90 % of control.

In the case of `COC1(c2ccc(Br)cc2)OC1(C)C` (stereo not given), the T/C (dose: 6.25 mg/kg/injection, schedule: Q04DX003 (ip), vehicle: water) is reported as 101 % of control, the T/C (dose: 12.5 mg/kg/injection, schedule: Q04DX003 (ip), vehicle: water) is reported as 94 % of control and the T/C (dose: 25.0 mg/kg/injection, schedule: Q01DX009 (ip), vehicle: water) is reported as 110 % of control. The T/C (dose: 25.0 mg/kg/injection, schedule: Q04DX003 (ip), vehicle: water) was 101 % of control, the T/C (dose: 50.0 mg/kg/injection, schedule: Q01DX009 (ip), vehicle: water) was 112 % of control and the T/C (dose: 50.0 mg/kg/injection, schedule: Q04DX003 (ip), vehicle: water) was 97 % of control. The T/C (dose: 100.0 mg/kg/injection, schedule: Q01DX009 (ip), vehicle: water) was 100 % of control, the T/C (dose: 100.0 mg/kg/injection, schedule: Q04DX003 (ip), vehicle: water) was 86 % of control and the T/C (dose: 200.0 mg/kg/injection, schedule: Q01DX009 (ip), vehicle: water) was 110 % of control. For the same molecule, the T/C (dose: 400.0 mg/kg/injection, schedule: Q01DX009 (ip), vehicle: water) was 124 % of control.

With `CC(=O)OC1CCC2(C)C(CCC3(C)C2CC=C2C4C(C)C(C)CCC4(C)CCC23C)C1(C)C` (stereo not given) the T/C [17] was 100 % of control, the T/C [18] was 100 % of control and the T/C (dose: 400.0 mg/kg/injection, schedule: Q04DX003 (ip), vehicle: Klucel (hydroxypropylcellulose) (HPC)) was 90 % of control.

With `CCCCCCCC(=O)Nc1ccc(C)c(C)c1` the T/C [1] was 109 % of control, the T/C [2] was 109 % of control and the T/C [3] was 109 % of control.

With `c1ccc(P(CCP(CCP(c2ccccc2)c2ccccc2)c2ccccc2)CCP(c2ccccc2)c2ccccc2)cc1` (stereo not given) the T/C [14] was 90 % of control and 100 % of control, the T/C [15] was 110 % of control and 100 % of control and the T/C (dose: 400.0 mg/kg/injection, schedule: Q01DX009 (ip), vehicle: saline with Tween-80) was 100 % of control and 120 % of control.

`COc1ccc2c(C)[n+]3ccc4cc(OC)c(OC)cc4c3cc2c1` (tested in a mixture with another compound) was tested, and the T/C (dose: 25.0 mg/kg/injection, schedule: Q04DX003 (ip), vehicle: saline) was 154 % of control, the T/C (dose: 33.0 mg/kg/injection, schedule: Q01DX009 (ip), vehicle: saline) was 186 % of control and the T/C [13] was 181 % of control. The T/C (dose: 50.0 mg/kg/injection, schedule: Q04DX003 (ip), vehicle: saline) was 154 % of control and 181 % of control, the T/C (dose: 75.0 mg/kg/injection, schedule: Q01DX009 (ip), vehicle: saline) was 118 % of control and the T/C (dose: 200.0 mg/kg/injection, schedule: Q04DX003 (ip), vehicle: saline) was 150 % of control.

With `CCCCCCCCOC(=O)c1ccc(OP(=O)(N(C)C)N(C)C)cc1` the T/C [9] was 99 % of control, the T/C [11] was 101 % of control and the T/C [12] was 106 % of control and 124 % of control. For the same molecule, the T/C [15] was 94 % of control.

`Cc1noc(C)c1CC1(Cc2c(C)noc2C)C(=O)CCC2(C)CCCC=C21` (stereo not given) was tested, and the T/C (dose: 50.0 mg/kg/injection, schedule: Q04DX003 (ip), vehicle: Klucel (hydroxypropylcellulose) (HPC)) was 91 % of control, the T/C [16] was 104 % of control and the T/C [17] was 104 % of control. For the same molecule, the T/C [5] was 95 % of control and the T/C [18] was 91 % of control.

`O=C(O)COc1ccccc1OCC(=O)O` was tested, and the T/C [4] was 109 % of control, the T/C [16] was 100 % of control and the T/C [5] was 100 % of control.

In the case of `O=[N+]([O-])c1ccc(S(=O)(=O)Cc2ccccc2)c2nonc12`, the T/C [11] is reported as 112 % of control.

With `CCN(CC)P1(=S)OCC(C)O1` (stereo not given) the T/C [1] was 92 % of control, the T/C [2] was 100 % of control and the T/C [3] was 111 % of control.

In the case of `CC(=O)c1ccccc1NC=O`, the T/C [1] is reported as 100 % of control, the T/C [2] is reported as 104 % of control and the T/C [3] is reported as 108 % of control.

With `CC(C)=C(B1OC(C)(C)C(C)(C)O1)B1OC(C)(C)C(C)(C)O1` the T/C (dose: 100.0 mg/kg/injection, schedule: Q01DX001 (ip), vehicle: saline with Tween-80) was 110 % of control, the T/C (dose: 200.0 mg/kg/injection, schedule: Q01DX001 (ip), vehicle: saline with Tween-80) was 105 % of control and the T/C (dose: 400.0 mg/kg/injection, schedule: Q01DX001 (ip), vehicle: saline with Tween-80) was 105 % of control.

In the case of `CSC1(CC(=O)N2CCCCC2)C(=O)Nc2ccccc21` (stereo not given), the T/C (dose: 50.0 mg/kg/injection, schedule: Q04DX002 (ip), vehicle: saline with Tween-80) is reported as 95 % of control, the T/C (dose: 100.0 mg/kg/injection, schedule: Q04DX002 (ip), vehicle: saline with Tween-80) is reported as 101 % of control and the T/C (dose: 200.0 mg/kg/injection, schedule: Q04DX002 (ip), vehicle: saline with Tween-80) is reported as 95 % of control.
